# Assay results reported in patent US9708314B2, “Heterocyclic amide compound” (NISSAN CHEMICAL INDUSTRIES, LTD., priority 2013, dated 2017).
# Experiments:
# Format in all cases: in vivo
# Monochoria vaginalis = test: Test Example 2: herbicidal activity, application during weed generation in submerged conditions; conditions: Eighteenth Table; application herbicide amount 320 g/ha
# Outline: (§1)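 Mixed sowings in flooded alluvial soil (4 cm water), greenhouse 25-30 °C; emulsifiable concentrate diluted in water applied to the water surface at the 1-2 leaf stage, rate in g/ha. Effect scored three weeks later on a 0-5 scale (5 = ≥90% herbicidal ratio, 0 = ≤5%).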
# [1] = system: Echinochloa oryzacola Vasing.; test: as above; conditions: Eighteenth Table; application herbicide amount 320 g/ha
# Outline: as §1
# Scirpus juncoides = test: as above; conditions: Eighteenth Table; application herbicide amount 320 g/ha
# Outline: as §1
# Veronica persica = test: Test Example 4: herbicidal effect by application to foliage (diluvial soil, plastic box); conditions: for R (Veronica persica) herbicidal effect: application to foliage, application herbicide amount 320 g/ha
# Outline: (§2)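 Plants were grown in sterilized diluvial soil in a greenhouse at 25-30° C for 14 days, then sprayed on stems and leaves with water-diluted emulsion formulation at set rates in g/ha. Weed control and crop injury were scored 3 weeks after treatment on a 0-5 herbicidal-ratio scale, from 0 (≤5%) to 5 (≥90%).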
# Alopecurus myosuroides = test: as above; conditions: for J (Alopecurus myosuroides) herbicidal effect: application to foliage, application herbicide amount 320 g/ha
# Outline: as §2
# [2] = system: Echinochloa crus-galli var. crus-galli; test: as above; conditions: for H (Echinochloa crus-galli var. crus-galli) herbicidal effect: application to foliage, application herbicide amount 320 g/ha
# Outline: as §2
# Chenopodium album = test: as above; conditions: for O (Chenopodium album) herbicidal effect: application to foliage, application herbicide amount 320 g/ha
# Outline: as §2
# Galium spurium = test: as above; conditions: for Q (Galium spurium) herbicidal effect: application to foliage, application herbicide amount 320 g/ha
# Outline: as §2
# Apera spica-venti. = test: as above; conditions: for L (Apera spica-venti.) herbicidal effect: application to foliage, application herbicide amount 320 g/ha
# Outline: as §2
# Avena fatua = test: as above; conditions: for I (Avena fatua) herbicidal effect: application to foliage, application herbicide amount 320 g/ha
# Outline: as §2
# Lolium multiflorum Lam. = test: as above; conditions: for K (Lolium multiflorum Lam.) herbicidal effect: application to foliage, application herbicide amount 320 g/ha
# Outline: as §2
# Setaria viridis = test: as above; conditions: for G (Setaria viridis) herbicidal effect: application to foliage, application herbicide amount 320 g/ha
# Outline: as §2
# Abutilon theophrasti = test: as above; conditions: for M (Abutilon theophrasti) herbicidal effect: application to foliage, application herbicide amount 320 g/ha
# Outline: as §2
# Digitaria ciliaris = test: as above; conditions: for F (Digitaria ciliaris) herbicidal effect: application to foliage, application herbicide amount 320 g/ha
# Outline: as §2
# Brassica campestris L. = test: Test Example 4: effect on crop by application to foliage (diluvial soil, plastic box); conditions: for g (Brassica campestris L.) effect on crop: application to foliage, application herbicide amount 320 g/ha
# Outline: as §2
# [3] = system: directly sowed Oryza sativa; test: as above; conditions: for d (directly sowed Oryza sativa) effect on crop: application to foliage, application herbicide amount 320 g/ha
# Outline: as §2
# Triticum aestivum = test: as above; conditions: for e (Triticum aestivum) effect on crop: application to foliage, application herbicide amount 320 g/ha
# Outline: as §2
# Glycine max = test: as above; conditions: for c (Glycine max) effect on crop: application to foliage, application herbicide amount 320 g/ha
# Outline: as §2
# [4] = system: Beta vulgaris ssp. vulgaris; test: as above; conditions: for f (Beta vulgaris ssp. vulgaris) effect on crop: application to foliage, application herbicide amount 320 g/ha
# Outline: as §2
# Zea mays = test: as above; conditions: for b (Zea mays) effect on crop: application to foliage, application herbicide amount 320 g/ha
# Outline: as §2
# [5] = Application herbicide amount 320 g/ha
# [6] = Application herbicide amount 320 g/ha, effect on crop
Structure (SMILES),C (Monochoria vaginalis) herbicidal ratio grade (Monochoria vaginalis),A (Echinochloa oryzicola Vasing.) herbicidal ratio grade [1],B (Scirpus juncoides) herbicidal ratio grade (Scirpus juncoides),R (Veronica persica) herbicidal effect (Veronica persica),J (Alopecurus myosuroides) herbicidal effect (Alopecurus myosuroides),H (Echinochloa crus-galli var. crus-galli) herbicidal effect [2],O (Chenopodium album) herbicidal effect (Chenopodium album),Q (Galium spurium) herbicidal effect (Galium spurium),L (Apera spica-venti.) herbicidal effect (Apera spica-venti.),I (Avena fatua) herbicidal effect (Avena fatua),K (Lolium multiflorum Lam.) herbicidal effect (Lolium multiflorum Lam.),G (Setaria viridis) herbicidal effect (Setaria viridis),M (Abutilon theophrasti) herbicidal effect (Abutilon theophrasti),F (Digitaria ciliaris) herbicidal effect (Digitaria ciliaris),g (Brassica campestris L.) effect on crop (Brassica campestris L.),d (directly sowed Oryza sativa) effect on crop [3],e (Triticum aestivum) effect on crop (Triticum aestivum),c (Glycine max) effect on crop (Glycine max),f (Beta vulgaris ssp. vulgaris) effect on crop [4],b (Zea mays) effect on crop (Zea mays),also measured
COc1cccc(Nc2nnc3c(C(=O)Nc4nnc(C)o4)ccc(C(F)(F)F)n23)n1 [1-102],1 (Herbicidal ratio of 5% or more and less than 20%),1 (Herbicidal ratio of 5% or more and less than 20%),1 (Herbicidal ratio of 5% or more and less than 20%),–,–,–,–,–,–,–,–,–,–,–,–,–,–,–,–,–,"R (Veronica persica; [5]): 4 (Herbicidal ratio of 70% or more and less than 90%); J (Alopecurus myosuroides; [5]): 0 (Herbicidal ratio of 5% or less (almost no effect)); H [2, 5]: 4 (Herbicidal ratio of 70% or more and less than 90%); O (Chenopodium album; [5]): 5 (Herbicidal ratio of 90% or more (almost completely withered)); Q (Galium spurium; [5]): 2 (Herbicidal ratio of 20% or more and less than 40%); L (Apera spica-venti.; [5]): 0 (Herbicidal ratio of 5% or less (almost no effect)); I (Avena fatua; [5]): 0 (Herbicidal ratio of 5% or less (almost no effect)); K (Lolium multiflorum Lam.; [5]): 0 (Herbicidal ratio of 5% or less (almost no effect)); G (Setaria viridis; [5]): 3 (Herbicidal ratio of 40% or more and less than 70%); M (Abutilon theophrasti; [5]): 3 (Herbicidal ratio of 40% or more and less than 70%); F (Digitaria ciliaris; [5]): 3 (Herbicidal ratio of 40% or more and less than 70%); g (Brassica campestris L.; [6]): 2 (Herbicidal ratio of 20% or more and less than 40%); d [3, 6]: 1 (Herbicidal ratio of 5% or more and less than 20%); e (Triticum aestivum; [6]): 0 (Herbicidal ratio of 5% or less (almost no effect)); c (Glycine max; [6]): 0 (Herbicidal ratio of 5% or less (almost no effect)); f [4, 6]: 4 (Herbicidal ratio of 70% or more and less than 90%); b (Zea mays; [6]): 0 (Herbicidal ratio of 5% or less (almost no effect))"
CCC(CC)c1nnc2c(C(=O)Nc3nnc(C)o3)ccc(C(F)(F)F)n12 [1-011],3 (Herbicidal ratio of 40% or more and less than 70%),5 (Herbicidal ratio of 90% or more (almost completely withered)),3 (Herbicidal ratio of 40% or more and less than 70%),5 (Herbicidal ratio of 90% or more (almost completely withered)),1 (Herbicidal ratio of 5% or more and less than 20%),5 (Herbicidal ratio of 90% or more (almost completely withered)),5 (Herbicidal ratio of 90% or more (almost completely withered)),2 (Herbicidal ratio of 20% or more and less than 40%),2 (Herbicidal ratio of 20% or more and less than 40%),1 (Herbicidal ratio of 5% or more and less than 20%),1 (Herbicidal ratio of 5% or more and less than 20%),4 (Herbicidal ratio of 70% or more and less than 90%),5 (Herbicidal ratio of 90% or more (almost completely withered)),5 (Herbicidal ratio of 90% or more (almost completely withered)),3 (Herbicidal ratio of 40% or more and less than 70%),4 (Herbicidal ratio of 70% or more and less than 90%),0 (Herbicidal ratio of 5% or less (almost no effect)),3 (Herbicidal ratio of 40% or more and less than 70%),5 (Herbicidal ratio of 90% or more (almost completely withered)),0 (Herbicidal ratio of 5% or less (almost no effect)),–
Cc1nnc(NC(=O)c2ccc(C(F)F)n3c(C(C)C)nnc23)o1 [1-053],0 (Herbicidal ratio of 5% or less (almost no effect)),1 (Herbicidal ratio of 5% or more and less than 20%),2 (Herbicidal ratio of 20% or more and less than 40%),4 (Herbicidal ratio of 70% or more and less than 90%),0 (Herbicidal ratio of 5% or less (almost no effect)),3 (Herbicidal ratio of 40% or more and less than 70%),5 (Herbicidal ratio of 90% or more (almost completely withered)),2 (Herbicidal ratio of 20% or more and less than 40%),0 (Herbicidal ratio of 5% or less (almost no effect)),1 (Herbicidal ratio of 5% or more and less than 20%),0 (Herbicidal ratio of 5% or less (almost no effect)),2 (Herbicidal ratio of 20% or more and less than 40%),4 (Herbicidal ratio of 70% or more and less than 90%),3 (Herbicidal ratio of 40% or more and less than 70%),1 (Herbicidal ratio of 5% or more and less than 20%),3 (Herbicidal ratio of 40% or more and less than 70%),0 (Herbicidal ratio of 5% or less (almost no effect)),0 (Herbicidal ratio of 5% or less (almost no effect)),3 (Herbicidal ratio of 40% or more and less than 70%),0 (Herbicidal ratio of 5% or less (almost no effect)),–
Cc1nnc(NC(=O)c2ccc(C(F)(F)F)n3c(C4=NOC(C)(C)C4)nnc23)o1 [1-029],3 (Herbicidal ratio of 40% or more and less than 70%),3 (Herbicidal ratio of 40% or more and less than 70%),2 (Herbicidal ratio of 20% or more and less than 40%),5 (Herbicidal ratio of 90% or more (almost completely withered)),1 (Herbicidal ratio of 5% or more and less than 20%),5 (Herbicidal ratio of 90% or more (almost completely withered)),5 (Herbicidal ratio of 90% or more (almost completely withered)),0 (Herbicidal ratio of 5% or less (almost no effect)),1 (Herbicidal ratio of 5% or more and less than 20%),1 (Herbicidal ratio of 5% or more and less than 20%),1 (Herbicidal ratio of 5% or more and less than 20%),4 (Herbicidal ratio of 70% or more and less than 90%),5 (Herbicidal ratio of 90% or more (almost completely withered)),5 (Herbicidal ratio of 90% or more (almost completely withered)),1 (Herbicidal ratio of 5% or more and less than 20%),3 (Herbicidal ratio of 40% or more and less than 70%),1 (Herbicidal ratio of 5% or more and less than 20%),1 (Herbicidal ratio of 5% or more and less than 20%),5 (Herbicidal ratio of 90% or more (almost completely withered)),3 (Herbicidal ratio of 40% or more and less than 70%),–
